Experimental findings from patent US20090286831A1, “VR1 Receptor Ligands and u-Opioid Receptor Ligands for the Treatment of Pain” (priority 2006, published 2009) are described below.

Marks after values point to notes of the source that are not given here.

One experiment deals with rats. As to the kind of experiment: Tail-flick (hot beam) test in rats. In kind it is in vivo, rat. The settings on record: dosage 30 mg/kg i.v. The procedure:
Sprague Dawley rats (140-160 g body weight) were used for the following animal models. Sprague Dawley rats (140-160 g body weight) from a commercial breeder (Janvier, Genest St. Isle, France) were used. The animals were kept under standard conditions: light-dark rhythm (06:00 to 18:00 h light, 18:00 to 06:00 h dark), room temperature 19-23° C., relative air humidity 45-65%, air exchange 19 times per hour, air movement <0.2 m/s, free choice of tap water and standard feed, Macrolon Type 4 cages with 5 animals per cage. The solutions of the test substances and/or vehicles (10% […], 5% Cremophor EL, 5% glucose) were administered intravenously.
The analgesic efficacy of the test compounds was examined in the hot beam (tail flick) test in rats using the method of D'Amour and Smith (J. Pharm. Exp. Ther. 1941, 72, 74-79). The time from switching on the lamp (8V/50 W) to the sudden flicking away of the tail from the hot beam (pain latency) was measured by means of a semiautomatic apparatus (tail-flick Analgesiemeter Type 50/08/1.bc, Labtec, Dr. Hess, Germany). The lamp intensity was adjusted before conducting the experiments so that the time from switching on the lamp to the sudden flicking away of the tail (pain latency) amounted to 3-5 seconds in untreated animals. The lamp was automatically switched off after 12 seconds to avoid tissue damage to the rat's tail. The pain latency was measured 10, 20, 40 and 60 min after intravenous administration. The analgesic effect was determined as increase in pain latency (% MPE) according to the following formula: […]
In this case, T0 is the latency time before and T1 the latency time after substance application, T2 is the maximum exposure time (12 sec). Results of the analgesia study in the tail-flick test in rats:
The following experiments of Example 2 relate to binding studies and the analgesic efficacy of the compounds with dual mode of action according to the invention. The experiments comprise the determination of the (f)Ki value at the TPRV1 receptor, the Ki value at the μ-opioid receptor and the hypothermia assay in mice. The tail-flick test for the compounds [1], [4], [7] and [10] according to the invention was conducted in a similar manner to the above-described method (cf. Example 1, experiment 1).

The next experiment concerns male NMRI mice. As to the kind of experiment: Hypothermia assay in mice (capsaicin-induced hypothermia). In kind it is in vivo, mouse. The note with it: dosage 3 mg/kg p.o., capsaicin 3 mg/kg i.p. The procedure: The hypothermia assay was conducted on male NMRI mice (weight 25-35 gram). The animals were kept in standardised conditions: light/dark rhythm (6:00 to 18:00 h light phase, 18:00 to 6:00 h dark phase), room temperature 19-22° C., relative air humidity 35-70%, air exchange 15 times per hour, air movement <0.2 m/sec. The animals received standard feed (ssniff R/M-Haltung, ssniff Spezialdiäten GmbH, Soest, Germany) and tap water. Water and feed were withdrawn during the test. All the animals were used only once in the test. […] The acute application of capsaicin (VR-1 agonist) causes a drop in core body temperature in rats and mice via a stimulation of heat sensors. Only specific active VR-1 receptor antagonists can antagonise capsaicin-induced hypothermia. In contrast, hypothermia induced by morphine is not antagonised by VR-1 antagonists. This model is therefore suitable for identifying substances with VR-1 antagonist properties via the effect on the body temperature.
A digital thermometer (Thermalert TH-5, physitemp, Clifton N.J., USA) is used for measuring the core body temperature. The measurement sensor is inserted into the rectum of the animals in this case. As an individual base value the body temperature is measured twice in each animal at an interval of approximately half an hour. A group of animals (n=6 to 10) then received an intraperitoneal (i.p.) application of capsaicin of 3 mg/kg and vehicle (control group). Another group of animals received the substance to be tested (i.v. or p.o.) and additionally capsaicin (3 mg/kg) i.p. The test substance was applied i.v. 10 min or p.o. 15 minutes before the application of capsaicin. Then, the body temperature was measured 7.5, 15 and 30 min after capsaicin application (i.v.+i.p.) or 15, 30, 60, 90 and 120 min after capsaicin application (p.o.+i.p.). In addition, one animal group was treated only with test substance and one group was treated only with vehicle. The antagonist effect is calculated as a percentage reduction in the capsaicin-induced hypothermia.

The target of experiment [1] is T1, human recombinant μ-opioid receptor (Homo sapiens, UniProt P35372).
T1 construct: expressed in transfected cells; host or cells: CHO-K1 cells (membrane preparation)
The experiment in a line: Ki value at the μ-opioid receptor (Experiment 4). In kind it is binding.

Experiment [2] concerns the target T2, vanilloid receptor 1 (VR1/TRPV1) (Homo sapiens, UniProt Q8NER1).
T2 construct: expressed in transfected cells; host or cells: CHO K1 cells (ECACC), stably transfected
As to the kind of experiment: FLIPR capsaicin assay. The experiment is classed as cell-based, human or rat. The note with it: functional Ki, capsaicin 100 nM, VR1-transfected CHO K1 cells, modified Cheng-Prusoff; read-out: f(Ki) (VR1). An excerpt:
(§1) The agonist or antagonist effect of substances can be determined at the vanilloid receptor 1 (VR1/TRPV1) of the human and rat species with the assay described below. Accordingly, the Ca^2+ influx through the channel is quantified by means of a Ca^2+-sensitive dye (Fluo-4, Molecular Probes Europe BV, Leiden, The Netherlands) in the fluorescent imaging plate reader (FLIPR, Molecular Devices, Sunnyvale, USA).
(§2) Chinese hamster ovary cells (CHO K1 cells, ECACC, England) are stably transfected with human or rat VR1 cDNA. For functional studies these cells are plated onto poly-D-lysine-coated black 96-hole plates with a clear base (BD Biosciences, Heidelberg, Germany) in a density of 25 000 cells/cavity. The cells are incubated overnight at 37° C. with 5% CO2 in culture medium (nutrient mixture Ham's F12, Gibco Invitrogen GmbH, Karlsruhe, Germany) with 10% vol. FBS (foetal bovine serum, Gibco Invitrogen GmbH, Karlsruhe, Germany) and 18 μg/ml of L-proline (Gibco Invitrogen GmbH, Karlsruhe, Germany). On the following day, the cells are laden with 2 μM Fluo-4 and 0.01% vol. Pluronic F127 (Molecular Probes Europe BV, Leiden, The Netherlands) in HBSS buffer (Hank's buffered saline solution, Gibco Invitrogen GmbH, Karlsruhe, Germany) for 30 min at 37° C. The plates are then washed 3 times in HBSS buffer and after further incubation for 15 minutes at room temperature are placed in the FLIPR for the Ca^2+ measurement. In this case, the Ca^2+-dependent fluorescence is measured before and after the addition of substances (λex=488 nm, λem=540 nm). Quantification occurs as a result of the measurement of the highest fluorescence intensity (FC, fluorescence counts) over time.
The FLIPR protocol consists of 2 substance additions. Test substances (10 μM) are firstly pipetted onto the cells and the Ca^2+ influx is compared to the control (capsaicin 10 μM). This gives the specification in % activation in relation to the Ca^2+ signal after adding 10 μM of capsaicin. After 5 minutes incubation 100 nM of capsaicin are applied and the influx of Ca^2+ likewise determined. Desensitising agonists and antagonists lead to a suppression of the Ca^2+ influx. Inhibition values [%] are calculated in comparison to the maximum achievable inhibition with a saturating concentration of […] or another reference antagonist. The test substance is added in different concentrations to determine the IC50 and functional Ki value ((f)Ki). Triple determinations (n=3) are conducted and these are repeated in at least one further independent experiment (N>=2). A capsaicin dose action curve is generated to incorporate the thus determined EC50 values into the associated (f)Ki determination. EC50/IC50 values are calculated using ‘Prism4’ software from GraphPad Software™ or with XLfit4™ (ID Business Solutions Ltd.). (f)Ki values are calculated in accordance with the modified Cheng-Prusoff equation (Cheng, Prusoff; Biochem. Pharmacol. 22, 3099-3108, 1973). Testing for non-specific inhibition of the fluorescence as a result of the substances is conducted by activating wild type CHO K1 cells incubated with the same test substances with ATP (10 μM final concentration).

The target of another experiment is T3, human VR1 (Homo sapiens, UniProt Q8NER1).
T3 construct: expressed in transfected cells; host or cells: CHO K1 cells (ECACC), stably transfected
The experiment in a line: FLIPR pH assay. The experiment is classed as cell-based.
Description: as §1, §2
In the pH assay, HBSS that now contains 60 mM MES instead of capsaicin is applied to human VR1-transfected CHO K1 cells (adjusted pH value of the addition solution is 4.95). Percentage inhibition and IC50 values are raised and evaluated as already described for the capsaicin test.

T1 sequence (P35372 whole entry): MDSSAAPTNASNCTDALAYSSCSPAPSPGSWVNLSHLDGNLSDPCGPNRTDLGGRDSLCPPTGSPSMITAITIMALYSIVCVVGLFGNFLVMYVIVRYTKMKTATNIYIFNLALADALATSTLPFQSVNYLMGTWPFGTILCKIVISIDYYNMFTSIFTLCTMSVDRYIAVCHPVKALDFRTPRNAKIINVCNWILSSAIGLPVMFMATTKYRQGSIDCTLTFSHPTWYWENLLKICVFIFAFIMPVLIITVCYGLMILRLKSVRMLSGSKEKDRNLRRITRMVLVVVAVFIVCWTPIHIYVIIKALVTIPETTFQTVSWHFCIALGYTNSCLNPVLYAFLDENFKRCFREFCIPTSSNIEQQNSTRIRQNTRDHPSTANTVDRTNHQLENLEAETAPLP
T2 sequence (Q8NER1 whole entry): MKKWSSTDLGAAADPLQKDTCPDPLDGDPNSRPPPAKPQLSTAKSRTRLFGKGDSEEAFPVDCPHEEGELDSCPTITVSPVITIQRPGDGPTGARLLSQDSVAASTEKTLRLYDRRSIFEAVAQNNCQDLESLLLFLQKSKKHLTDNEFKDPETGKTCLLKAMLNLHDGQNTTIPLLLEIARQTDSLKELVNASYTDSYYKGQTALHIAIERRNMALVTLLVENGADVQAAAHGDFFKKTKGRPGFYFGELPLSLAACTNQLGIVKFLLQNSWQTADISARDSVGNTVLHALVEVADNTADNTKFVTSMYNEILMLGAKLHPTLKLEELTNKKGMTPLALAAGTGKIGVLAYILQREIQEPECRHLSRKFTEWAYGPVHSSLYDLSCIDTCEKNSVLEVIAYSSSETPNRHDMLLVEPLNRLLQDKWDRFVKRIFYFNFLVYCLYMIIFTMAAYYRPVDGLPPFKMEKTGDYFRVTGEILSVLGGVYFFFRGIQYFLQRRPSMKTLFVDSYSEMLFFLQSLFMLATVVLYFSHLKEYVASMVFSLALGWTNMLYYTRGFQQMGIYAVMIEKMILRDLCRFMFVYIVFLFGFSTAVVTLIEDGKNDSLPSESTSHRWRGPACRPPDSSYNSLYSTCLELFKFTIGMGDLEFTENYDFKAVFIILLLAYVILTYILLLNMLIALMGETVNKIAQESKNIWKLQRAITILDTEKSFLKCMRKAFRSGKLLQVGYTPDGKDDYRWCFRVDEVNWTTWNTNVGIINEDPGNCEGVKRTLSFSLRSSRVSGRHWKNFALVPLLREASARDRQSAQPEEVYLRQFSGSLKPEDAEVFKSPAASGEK
T3 sequence (Q8NER1 whole entry): as above

One may read the Ki as the equilibrium dissociation constant of an inhibitor or competing ligand from its target. The IC50 is the concentration that inhibits the measured activity by half. `CC(C(=O)NCc1ccc(C(F)(F)F)cc1N1CCC(Cc2ccccc2)(N(C)C)CC1)c1ccc(NS(C)(=O)=O)c(F)c1` (centres unmarked) [[7], N-(2-(4-benzyl-4-(dimethylamino)piperidin-1-yl)-4-(trifluoromethyl)benzyl)-2-(3-fluoro-4-(methylsulfonamido)phenyl)propanamide]: the “Tail-Flick [% MPE]” value in the experiment on rats is recorded as “n.e.^3), 100%^4) % MPE”. Also, in the experiment on male NMRI mice, the “Hypothermia Assay [% Inhibition]” value is 59%^1). For the same compound, the inhibition constant (Ki) was found to be 0.024 µM in experiment [1] and 0.0028 µM in experiment [2]. Half-maximal inhibition at human VR1 (IC50) was put at 0.434 µM.
Take `CC(C(=O)NCc1ccc(C(F)(F)F)cc1N1CCC(Cc2cccc(F)c2)(N(C)C)CC1)c1ccc(NS(C)(=O)=O)c(F)c1` (centres unmarked) [[10], N-(2-(4-(dimethylamino)-4-(3-fluorobenzyl)piperidin-1-yl)-4-(trifluoromethyl)benzyl)-2-(3-fluoro-4-(methylsulfonamido)phenyl)propanamide]: the “Hypothermia Assay [% Inhibition]” value in the experiment with male NMRI mice stood at 29%^1). Moreover, the Ki in experiment [1] turned out to be 0.079 µM; in experiment [2], 0.0014 µM. Also, the IC50 against human VR1 was determined as 0.137 µM.
Regarding `CC(C(=O)NCc1ccc(C(F)(F)F)cc1N1CCC(c2cccs2)(N(C)C)CC1)c1ccc(NS(C)(=O)=O)c(F)c1` (centres unmarked) [[4], N-(2-(4-(dimethylamino)-4-(thiophen-2-yl)piperidin-1-yl)-4-(trifluoromethyl)benzyl)-2-(3-fluoro-4-(methylsulfonamido)phenyl)propanamide], the “Tail-Flick [% MPE]” value in the experiment with rats is recorded as “n.e.^3), 37%^4) % MPE”. Further, the “Hypothermia Assay [% Inhibition]” value in the experiment on male NMRI mice was found to be 4%^1). Moreover, the figures for the Ki in experiment [1] and in experiment [2] were 0.061 µM and 0.005 µM, respectively. At human VR1, this compound gave an IC50 of 0.776 µM.
